ChEMBL document CHEMBL3627608, “Crystal structures of human RIP2 kinase catalytic domain complexed with ATP-competitive inhibitors: Foundations for understanding inhibitor selectivity” (Bioorg Med Chem, 2015)

Columns and labels:
[1] = target: Casein kinase I isoform alpha (Homo sapiens) (UniProt P48729); assay: Inhibition of CK1alpha1 (unknown origin) at 10 uM after 120 mins P33 radiolabeled kinase activity assay
[2] = target: T1, NUAK family SNF1-like kinase 1 (Homo sapiens) (UniProt O60285); assay: Inhibition of ARK5 (unknown origin) at 10 uM after 120 mins P33 radiolabeled kinase activity assay
T1 sequence (whole entry): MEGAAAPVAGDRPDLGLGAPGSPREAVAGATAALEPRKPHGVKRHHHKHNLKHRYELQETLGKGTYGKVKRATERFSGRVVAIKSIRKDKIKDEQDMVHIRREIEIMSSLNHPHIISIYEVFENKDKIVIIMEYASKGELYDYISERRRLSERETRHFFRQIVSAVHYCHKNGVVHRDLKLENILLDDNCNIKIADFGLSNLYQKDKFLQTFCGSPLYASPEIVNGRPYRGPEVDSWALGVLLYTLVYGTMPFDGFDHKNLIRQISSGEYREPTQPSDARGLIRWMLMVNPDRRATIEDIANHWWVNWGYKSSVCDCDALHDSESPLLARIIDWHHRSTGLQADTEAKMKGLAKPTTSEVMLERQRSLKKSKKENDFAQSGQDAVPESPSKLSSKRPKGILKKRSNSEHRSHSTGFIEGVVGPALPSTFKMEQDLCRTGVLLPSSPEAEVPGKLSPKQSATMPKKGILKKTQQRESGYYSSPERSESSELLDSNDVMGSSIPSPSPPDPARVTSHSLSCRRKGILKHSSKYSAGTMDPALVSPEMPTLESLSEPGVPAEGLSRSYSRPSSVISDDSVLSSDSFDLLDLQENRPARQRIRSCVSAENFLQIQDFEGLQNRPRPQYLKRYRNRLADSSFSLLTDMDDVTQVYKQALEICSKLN

[3] = target: Tyrosine-protein kinase Fer (Homo sapiens) (UniProt P16591); assay: Inhibition of FER (unknown origin) at 10 uM after 120 mins P33 radiolabeled kinase activity assay
[4] = target: T2, Tyrosine-protein kinase Mer (Homo sapiens) (UniProt Q12866); assay: Inhibition of c-MER (unknown origin) at 10 uM after 120 mins P33 radiolabeled kinase activity assay
T2 sequence (whole entry): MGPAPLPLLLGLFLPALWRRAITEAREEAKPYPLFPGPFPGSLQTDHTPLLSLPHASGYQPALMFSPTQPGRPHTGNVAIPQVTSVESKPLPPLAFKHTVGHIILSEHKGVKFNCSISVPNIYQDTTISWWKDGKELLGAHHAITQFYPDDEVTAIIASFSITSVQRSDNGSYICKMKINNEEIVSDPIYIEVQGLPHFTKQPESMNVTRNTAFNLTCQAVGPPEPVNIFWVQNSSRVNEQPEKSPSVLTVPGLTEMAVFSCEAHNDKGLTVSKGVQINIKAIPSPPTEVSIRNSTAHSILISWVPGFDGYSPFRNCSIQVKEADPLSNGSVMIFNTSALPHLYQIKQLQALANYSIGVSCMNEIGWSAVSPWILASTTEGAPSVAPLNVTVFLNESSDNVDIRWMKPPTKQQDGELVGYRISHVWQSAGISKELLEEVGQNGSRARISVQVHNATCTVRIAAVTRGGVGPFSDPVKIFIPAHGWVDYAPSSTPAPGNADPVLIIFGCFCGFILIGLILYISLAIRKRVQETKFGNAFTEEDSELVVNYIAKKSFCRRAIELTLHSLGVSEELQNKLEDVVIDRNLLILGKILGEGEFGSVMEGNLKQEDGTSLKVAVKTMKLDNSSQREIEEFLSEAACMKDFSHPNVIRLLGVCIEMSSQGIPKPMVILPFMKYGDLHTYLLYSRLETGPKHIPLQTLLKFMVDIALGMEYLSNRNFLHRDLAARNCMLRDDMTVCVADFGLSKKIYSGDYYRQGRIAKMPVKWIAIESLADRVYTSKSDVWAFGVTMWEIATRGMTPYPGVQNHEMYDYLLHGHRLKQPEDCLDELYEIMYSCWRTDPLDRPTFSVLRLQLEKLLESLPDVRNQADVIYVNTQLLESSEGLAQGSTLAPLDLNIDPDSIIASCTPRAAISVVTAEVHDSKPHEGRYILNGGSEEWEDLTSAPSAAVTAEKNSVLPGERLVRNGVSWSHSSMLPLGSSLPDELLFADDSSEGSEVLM

[5] = target: Serine/threonine-protein kinase MRCK alpha (Homo sapiens) (UniProt Q5VT25); assay: Inhibition of MRCKalpha (unknown origin) at 10 uM after 120 mins P33 radiolabeled kinase activity assay
[6] = target: Fibroblast growth factor receptor 2 (Homo sapiens) (UniProt P21802); assay: Inhibition of FGFR2 (unknown origin) at 10 uM after 120 mins P33 radiolabeled kinase activity assay
[7] = target: T3, Serine/threonine-protein kinase D1 (Homo sapiens) (UniProt Q15139); assay: Inhibition of PKCmu (unknown origin) at 10 uM after 120 mins P33 radiolabeled kinase activity assay
T3 sequence (whole entry): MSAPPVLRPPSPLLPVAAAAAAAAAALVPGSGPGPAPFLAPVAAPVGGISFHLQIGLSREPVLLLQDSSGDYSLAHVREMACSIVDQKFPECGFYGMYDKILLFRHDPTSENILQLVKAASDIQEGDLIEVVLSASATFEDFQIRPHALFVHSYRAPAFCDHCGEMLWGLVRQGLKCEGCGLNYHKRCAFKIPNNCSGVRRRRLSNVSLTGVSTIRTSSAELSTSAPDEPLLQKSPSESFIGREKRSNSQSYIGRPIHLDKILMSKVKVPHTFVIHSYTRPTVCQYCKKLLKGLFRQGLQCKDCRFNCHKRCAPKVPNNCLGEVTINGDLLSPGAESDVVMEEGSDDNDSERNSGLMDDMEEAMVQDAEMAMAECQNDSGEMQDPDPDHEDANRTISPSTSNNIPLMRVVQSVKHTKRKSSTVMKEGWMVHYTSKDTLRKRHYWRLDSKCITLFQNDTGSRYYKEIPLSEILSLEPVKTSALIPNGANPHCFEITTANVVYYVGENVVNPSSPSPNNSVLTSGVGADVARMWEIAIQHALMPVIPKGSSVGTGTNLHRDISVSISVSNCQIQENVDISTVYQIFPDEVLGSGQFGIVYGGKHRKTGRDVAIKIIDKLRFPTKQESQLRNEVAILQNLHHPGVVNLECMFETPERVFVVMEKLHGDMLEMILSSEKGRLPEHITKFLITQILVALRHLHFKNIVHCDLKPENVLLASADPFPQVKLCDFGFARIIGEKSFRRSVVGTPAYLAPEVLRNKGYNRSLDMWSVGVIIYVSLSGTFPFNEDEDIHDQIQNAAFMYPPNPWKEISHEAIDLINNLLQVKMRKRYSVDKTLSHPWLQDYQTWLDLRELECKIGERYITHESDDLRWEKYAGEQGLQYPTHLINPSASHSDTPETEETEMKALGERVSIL

[8] = target: Aurora kinase B (Homo sapiens) (UniProt Q96GD4); assay: Inhibition of Aurora B (unknown origin) at 10 uM after 120 mins P33 radiolabeled kinase activity assay
Aurora kinase B (Homo sapiens), sequence (Q96GD4 whole entry): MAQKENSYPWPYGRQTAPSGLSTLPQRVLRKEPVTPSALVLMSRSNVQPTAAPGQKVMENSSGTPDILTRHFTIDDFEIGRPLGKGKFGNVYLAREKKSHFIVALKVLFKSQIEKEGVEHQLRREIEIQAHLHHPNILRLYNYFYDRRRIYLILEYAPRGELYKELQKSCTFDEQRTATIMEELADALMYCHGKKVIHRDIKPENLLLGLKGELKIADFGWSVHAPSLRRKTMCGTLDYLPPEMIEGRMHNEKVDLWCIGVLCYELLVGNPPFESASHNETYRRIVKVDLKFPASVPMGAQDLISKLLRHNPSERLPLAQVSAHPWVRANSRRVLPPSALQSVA

Casein kinase I isoform alpha (Homo sapiens), sequence (P48729 2-337 limits assumed): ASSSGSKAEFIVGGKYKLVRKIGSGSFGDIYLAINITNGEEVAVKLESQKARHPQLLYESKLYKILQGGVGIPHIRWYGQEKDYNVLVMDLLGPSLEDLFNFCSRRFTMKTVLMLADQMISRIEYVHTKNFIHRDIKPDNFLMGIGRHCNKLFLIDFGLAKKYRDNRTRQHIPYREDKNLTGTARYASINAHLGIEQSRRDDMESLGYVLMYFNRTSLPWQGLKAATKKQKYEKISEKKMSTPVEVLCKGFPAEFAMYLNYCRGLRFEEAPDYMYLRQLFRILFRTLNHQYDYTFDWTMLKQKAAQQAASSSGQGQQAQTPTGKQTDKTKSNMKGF
Fibroblast growth factor receptor 2 (Homo sapiens), sequence (P21802 22-821 limits assumed): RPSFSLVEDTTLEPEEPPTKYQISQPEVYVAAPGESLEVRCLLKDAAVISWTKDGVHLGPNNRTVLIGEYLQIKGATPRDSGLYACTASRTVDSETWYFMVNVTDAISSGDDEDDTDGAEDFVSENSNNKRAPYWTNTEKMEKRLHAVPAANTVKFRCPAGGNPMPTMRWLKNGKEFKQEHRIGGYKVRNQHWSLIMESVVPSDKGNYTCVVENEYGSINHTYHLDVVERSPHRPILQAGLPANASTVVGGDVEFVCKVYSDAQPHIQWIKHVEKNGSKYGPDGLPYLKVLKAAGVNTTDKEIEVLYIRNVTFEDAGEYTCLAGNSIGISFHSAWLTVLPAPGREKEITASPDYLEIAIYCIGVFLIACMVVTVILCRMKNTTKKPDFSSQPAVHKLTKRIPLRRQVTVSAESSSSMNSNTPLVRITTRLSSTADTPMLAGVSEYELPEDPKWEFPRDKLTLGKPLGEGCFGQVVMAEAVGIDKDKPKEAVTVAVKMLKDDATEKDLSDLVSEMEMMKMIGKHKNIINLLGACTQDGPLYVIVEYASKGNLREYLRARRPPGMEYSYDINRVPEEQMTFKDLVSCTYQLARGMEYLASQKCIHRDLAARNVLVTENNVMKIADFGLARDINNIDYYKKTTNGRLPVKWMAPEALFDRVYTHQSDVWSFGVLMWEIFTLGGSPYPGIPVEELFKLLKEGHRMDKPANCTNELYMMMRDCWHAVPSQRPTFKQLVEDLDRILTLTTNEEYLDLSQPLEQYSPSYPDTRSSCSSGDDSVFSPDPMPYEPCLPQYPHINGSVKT
Serine/threonine-protein kinase MRCK alpha (Homo sapiens), sequence (Q5VT25 whole entry): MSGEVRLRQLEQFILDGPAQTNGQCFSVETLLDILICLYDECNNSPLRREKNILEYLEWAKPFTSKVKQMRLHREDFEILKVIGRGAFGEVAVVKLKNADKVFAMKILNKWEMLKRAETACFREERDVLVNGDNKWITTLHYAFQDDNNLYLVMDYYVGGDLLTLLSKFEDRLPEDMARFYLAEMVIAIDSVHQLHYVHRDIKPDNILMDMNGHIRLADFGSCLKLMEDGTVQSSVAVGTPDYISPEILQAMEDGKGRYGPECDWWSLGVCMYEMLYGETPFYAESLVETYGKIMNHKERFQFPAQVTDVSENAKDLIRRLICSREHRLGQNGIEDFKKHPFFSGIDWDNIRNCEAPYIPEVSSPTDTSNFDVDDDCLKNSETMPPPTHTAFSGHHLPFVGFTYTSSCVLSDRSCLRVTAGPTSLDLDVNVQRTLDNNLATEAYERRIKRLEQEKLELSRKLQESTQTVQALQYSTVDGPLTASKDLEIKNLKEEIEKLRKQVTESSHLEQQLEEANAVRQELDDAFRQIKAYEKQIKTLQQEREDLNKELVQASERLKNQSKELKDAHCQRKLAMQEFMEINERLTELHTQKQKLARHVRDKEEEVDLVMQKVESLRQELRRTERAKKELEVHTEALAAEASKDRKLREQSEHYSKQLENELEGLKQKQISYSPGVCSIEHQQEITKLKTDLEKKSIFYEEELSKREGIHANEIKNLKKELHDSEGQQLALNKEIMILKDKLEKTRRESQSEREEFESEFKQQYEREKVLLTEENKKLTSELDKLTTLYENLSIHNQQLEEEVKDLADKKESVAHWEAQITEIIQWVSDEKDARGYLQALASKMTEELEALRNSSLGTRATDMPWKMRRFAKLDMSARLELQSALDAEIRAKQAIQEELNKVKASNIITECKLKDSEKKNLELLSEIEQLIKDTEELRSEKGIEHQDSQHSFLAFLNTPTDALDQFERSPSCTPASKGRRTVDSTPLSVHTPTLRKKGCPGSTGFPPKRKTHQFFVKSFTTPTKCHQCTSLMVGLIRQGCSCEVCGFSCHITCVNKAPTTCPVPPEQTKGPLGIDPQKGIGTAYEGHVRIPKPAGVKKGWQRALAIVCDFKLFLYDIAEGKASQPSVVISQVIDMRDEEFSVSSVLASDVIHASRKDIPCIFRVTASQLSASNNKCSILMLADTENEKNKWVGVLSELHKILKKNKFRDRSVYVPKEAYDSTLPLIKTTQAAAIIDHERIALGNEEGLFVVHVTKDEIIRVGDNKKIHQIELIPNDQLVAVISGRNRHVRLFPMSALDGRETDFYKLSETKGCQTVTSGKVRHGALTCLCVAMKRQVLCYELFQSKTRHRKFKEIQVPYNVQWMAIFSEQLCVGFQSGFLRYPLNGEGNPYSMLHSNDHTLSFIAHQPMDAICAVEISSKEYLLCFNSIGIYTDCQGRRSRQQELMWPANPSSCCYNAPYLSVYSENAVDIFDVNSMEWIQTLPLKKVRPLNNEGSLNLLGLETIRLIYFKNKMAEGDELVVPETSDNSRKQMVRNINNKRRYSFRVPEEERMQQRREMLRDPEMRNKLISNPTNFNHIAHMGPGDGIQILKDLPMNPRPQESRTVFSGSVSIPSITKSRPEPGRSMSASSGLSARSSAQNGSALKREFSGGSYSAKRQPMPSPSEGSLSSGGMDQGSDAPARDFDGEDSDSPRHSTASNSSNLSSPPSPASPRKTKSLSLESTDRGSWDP
Tyrosine-protein kinase Fer (Homo sapiens), sequence (P16591 whole entry, looked up): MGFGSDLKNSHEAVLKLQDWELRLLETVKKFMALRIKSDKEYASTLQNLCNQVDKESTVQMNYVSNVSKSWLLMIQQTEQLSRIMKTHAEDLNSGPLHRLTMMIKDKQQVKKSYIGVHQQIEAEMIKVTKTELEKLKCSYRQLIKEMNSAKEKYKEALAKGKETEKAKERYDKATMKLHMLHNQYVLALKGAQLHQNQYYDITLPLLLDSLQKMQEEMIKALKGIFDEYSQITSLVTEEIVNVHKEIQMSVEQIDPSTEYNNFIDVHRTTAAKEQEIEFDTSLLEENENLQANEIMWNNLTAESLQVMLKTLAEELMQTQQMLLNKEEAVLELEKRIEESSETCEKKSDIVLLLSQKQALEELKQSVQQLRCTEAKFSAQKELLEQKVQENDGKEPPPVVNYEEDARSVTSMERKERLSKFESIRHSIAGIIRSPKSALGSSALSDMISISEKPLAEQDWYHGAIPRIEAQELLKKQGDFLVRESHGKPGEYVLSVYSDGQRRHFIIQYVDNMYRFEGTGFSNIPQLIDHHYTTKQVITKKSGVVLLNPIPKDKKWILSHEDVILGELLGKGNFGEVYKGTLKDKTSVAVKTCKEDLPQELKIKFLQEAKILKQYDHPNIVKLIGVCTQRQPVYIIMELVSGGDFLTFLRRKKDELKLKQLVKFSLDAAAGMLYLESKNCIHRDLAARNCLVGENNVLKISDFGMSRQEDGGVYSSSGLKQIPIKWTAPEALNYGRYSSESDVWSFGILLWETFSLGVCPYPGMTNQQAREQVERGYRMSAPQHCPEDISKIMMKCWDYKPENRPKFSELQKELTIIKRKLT

inhibition [1] [%] | inhibition [2] [%] | inhibition [3] [%] | inhibition [4] [%] | inhibition [5] [%] | inhibition [6] [%] | inhibition [7] [%] | inhibition [8] [%] | Structure (SMILES)
22.6 | 41.1 | 65.2 | 98.2 | 13 | 64.4 | 100 | 82.1 | CS(=O)(=O)c1cccc(Nc2nccc(-c3sc(N4CCOCC4)nc3-c3cccc(NS(=O)(=O)c4c(F)cccc4F)c3)n2)c1
46.8 | 7.6 | 0.68 | 30.8 | 8.76 | 4.14 | 12.1 | 6.36 | COCCNC(=O)c1ccc2c(c1)nc(-c1cnc(-c3ccc(Cl)cc3)[nH]1)n2CCOC
19.9 | -0.15 | 19.9 | 77.9 | 30.5 | 79.4 | 19.5 | 49.2 | CC(C)(C)c1cc(NC(=O)Nc2ccc(Oc3ccncc3)cc2)no1
